Laboratory results as given in patent publication US7579488B2 (Eli Lilly and Company, priority 2003, dated 2009).
Values joined by “and” are separate entries in the source; they are usually repeats but may differ in a detail not shown here. Identical values can stand only once. Like-named read-outs stand apart in the source and are kept apart here.

How the values were obtained:
female DBF mice [1] = settings: in vivo, po
From the text: The Mouse Hypercalcemia Assay
(§1) The Mouse Hypercalcemia Assay is a six day hypercalcemia test for toxicity and selectivity.
(§2) (4) Materials and Method for the Mouse Hypercalcemia Assay:
(§3) Weanling, virus-antibody-free, five to six weeks old female DBF mice (Harlan, Indianapolis, Ind.) are used for all the studies. Animals are allowed to acclimate to local vivarium conditions for 2 days. […] The animals then are divided into groups with 4-5 mice per group. Different doses of test compounds prepared in 10% Ethanol and 90% sesame oil are administered to mice orally via gavage for 6 days. 1α-25(OH)2D3 0.5 μg/kg/d was also given to one group of mice as the positive control. […] Raw data of group differences is assessed by analysis of variance (ANOVA) using Fisher's protected least significant difference (PLSD) where the significance level was P<0.05.

RXR-VDR heterodimer = molecular target: T1, RXR-VDR heterodimer (Homo sapiens, UniProt P11473); test: RXR-VDR heterodimerization assay (SaOS-2 cells); assay type: cell-based; settings: Gal4-RXR-DEF/VP16-VDR-LBD luciferase reporter, several values in a cell separated by /
T1 construct: Add the Gal4-RXR-DEF and VP16-VDR-LBD; expressed in transfected cells; host or cells: SaOS-2 cells
T1 sequence (P11473 127-423 limits assumed): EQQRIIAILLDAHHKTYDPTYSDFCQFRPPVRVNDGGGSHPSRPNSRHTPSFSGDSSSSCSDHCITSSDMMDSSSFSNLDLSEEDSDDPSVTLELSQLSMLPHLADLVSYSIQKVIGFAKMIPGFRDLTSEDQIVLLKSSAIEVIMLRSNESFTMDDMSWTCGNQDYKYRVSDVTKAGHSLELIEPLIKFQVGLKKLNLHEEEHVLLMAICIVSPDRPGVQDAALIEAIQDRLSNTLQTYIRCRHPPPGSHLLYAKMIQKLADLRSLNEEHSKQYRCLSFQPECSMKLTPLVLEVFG
T1 sequence (P19793 201-462 partner limits assumed): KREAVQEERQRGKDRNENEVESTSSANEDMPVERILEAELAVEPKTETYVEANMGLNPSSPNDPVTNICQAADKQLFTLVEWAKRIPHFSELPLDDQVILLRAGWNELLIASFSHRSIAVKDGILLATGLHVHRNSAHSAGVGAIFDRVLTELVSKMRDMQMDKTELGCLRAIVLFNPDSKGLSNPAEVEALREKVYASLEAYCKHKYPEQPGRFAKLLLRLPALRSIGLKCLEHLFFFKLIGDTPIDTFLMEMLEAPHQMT

VDR = molecular target: T2, VDR (Homo sapiens, UniProt P11473); test: VDR CTF (Caco-2 cell co-transfection) assay; assay type: cell-based; settings: Caco-2 cells, pGal4-VDR-LBD co-transfection, luciferase; several values separated by /
T2 construct: the receptor expression vector pGal4-VDR-LBD (10 ng); expressed in transfected cells; host or cells: Caco-2 cells
T2 sequence (P11473 127-423 limits assumed): T1 sequence (P11473 127-423 limits assumed)
Method: 2. The Caco-2 Cell Co-Transfection Assay:
The Caco-2 cell assay is an indicator for the undesirable condition of hypercalcemia. This co-transfection assay is a surrogate assay for in vivo calcemic activity of VDR ligands. […] Preferred assay results are greater than 1000 nM.
(2) Materials and Method for the Caco-2 Cell Assay:
Caco-2 cells, grown in phenol red free, DMEM (Invitrogen, Carlsbad, Calif.) containing 10% charcoal-stripped FCS (Hyclone, Logan, Utah), were transfected with Fugene 6 reagent (Roche Diagnostics, Indianapolis, Ind.). Cells (5000/well) were plated 18 h before transfection in a 96 well plate. The Cells were transfected with Gal4-responsive reporter pFRLuc (150 ng, Stratagene, La Jolla Calif.) and the receptor expression vector pGal4-VDR-LBD (10 ng), along with Fugene 6 reagent (0.2 μl/well). The DNA-Fugene complex was formed by incubating the mixture for 30 min at room temperature. The cells were transfected in triplicate for 5 h, and treated with various concentrations of VDR ligands (form 0.01 nM to 10,000 nM concentration range) 18 h post-transfection. The luciferase activity was quantified using Steady-Glo reagent kit (Promega, Madison, Wis.) as per manufacturer's specifications.

rat osteocalcin promoter = test: OCN (osteocalcin) promoter assay; assay type: cell-based; settings: Rattus norvegicus, 48 h, RG-15 (ROS 17/2.8) cells, 48 hr treatment, luciferase; several values separated by /
Procedure, shortened: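 Rat osteoblast-like RG-15 (ROS 17/2.8) cells stably carrying a luciferase reporter driven by the osteocalcin promoter, treated with compounds in DMSO (0.01% v/v final) in medium with 2% FBS. After 48 hr at 37 °C, cells were lysed and luciferase activity measured.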

KERtr cells = test: Keratinocyte proliferation assay; assay type: cell-based; settings: Homo sapiens, 72 h, BrdU incorporation, several values separated by /, read-out: Kera. Prolif. IC50
IL-10 = IL-10 induction assay; assay type: cell-based; settings: Homo sapiens, PBMC, TPA/PHA stimulated human PBMCs, IL-10 in supernatant by immunoassay; several values separated by /
From the text: 6. The IL-10 Induction Assay
This is an in vitro efficacy assay for psoriasis, abscess and adhesion. Psoriasis involves both keratinocytes and immune cells. IL-10 is a unique cytokine because it is anti-inflammatory and immunosuppressive. This assay tells us whether a VDRM is able to function as an agonist in PBMCs ([…]) or not.
(6) Materials and Method for Human IL-10 Induction Assay:
Isolation of Peripheral Blood Mononuclear Cells (PBMCs):
B. Prepare sterile tubes with ficol.
C. Add diluted blood to tubes.
E. Discard the top layer and collect the cells from middle layer.
F. Divide all cells into four tubes and add media.
H. Aspirate off media and resuspend.
J. Centrifuge. at 1200 rpm for 10 minutes.
M. Dissolve PHA in water.
N. Plate TPA/PHA treated PBMCs in well plates.
Sample Collection and Assay:
S. Remove all the cells by centrifugation and assay the supernatant for IL-10 by immunoassay.
1) T. Perform […] using anti-human IL-10 antibody coated beads, as described by the manufacturer (Linco Research Inc., St. Charles, Mo.).

female DBF mice [2] = test: Mouse hypercalcemia assay; settings: oral gavage for 6 days; serum ionized calcium 6 hours after last dosing
From the text: The Mouse Hypercalcemia Assay
as §1, §2, §3

| Compound | Mouse Hypercal (female DBF mice [1]) [µg/kg/day] | EC50 (RXR-VDR heterodimer) | EC50 (VDR) [nM] | EC50 (rat osteocalcin promoter) [nM] | IC50 (KERtr cells) [nM] | IC50 (IL-10) [nM] | Mouse Hypercal (female DBF mice [2]) [µg/kg/day] |
| --- | --- | --- | --- | --- | --- | --- | --- |
| C=C1/C(=C\C=C2/CCC[C@]3(C)[C@@H]([C@H](C)CCCC(C)(C)O)CC[C@@H]23)C[C@@H](O)C[C@@H]1O [AA, 1α,25-dihydroxyvitamin D3] | 0.06 |  |  |  |  |  |  |
| CCC(CC)(c1ccc(OCC(=O)C(C)(C)C)c(C)c1)c1ccc2oc(C(=O)NCC(=O)O)cc2c1 [Ex 32, [(5-{1-[4-(3,3-dimethyl-2-oxo-butoxy)-3-methyl-phenyl]-1-ethyl-propyl}-benzofuran-2-carbonyl)-amino]-acetic acid] |  | 31 nM and 4 nM | 385 | 1 | 10 | 51 | >300 |
